The record followed here is ChEMBL document CHEMBL1124133, “Synthesis and hypolipidemic activity of 2-substituted isobutyric acid derivatives” (1988).

Common to all, as to assay type: functional
What all share (conditions): route oral

Assay [1] relates to Rattus norvegicus. Put plainly: Hypolipidemic effects of compound on rat plasma high density lipoprotein cholesterol (HDLC) level after peroral administration at 100 mg/kg dose.
In assay [2] the test system is Rattus norvegicus. Put plainly: Hypolipidemic effects in rat fed a high cholesterol diet (HC) by peroral administration at 100 mg/kg dose(increase in liver weight with respect to body weight mg/g).
The test system of assay [3] is Rattus norvegicus. Nature of the assay: Hypolipidemic effect on rat plasma Total cholesterol (TC) level by peroral administration at 100 mg/kg dose.
Assay [4] has as its system Rattus norvegicus. Nature of the assay: Hypolipidemic effects of compound on rat plasma Triglyceride (TG) level after peroral administration at 100 mg/kg dose.
In assay [5] the test system is Rattus norvegicus. Put plainly: Hypolipidemic effects in rat fed a normal diet by peroral administration at 100 mg/kg dose(increase in liver weight with respect to body weight mg/g).
The test system of assay [6] is Rattus norvegicus. Put plainly: Hypolipidemic effects in rat fed a high cholesterol diet (HC) by peroral administration at 100 mg/kg dose.(increase in liver weight with respect to body weight mg/g).
Assay [7] concerns Rattus norvegicus. Put plainly: Hypolipidemic effects in rat fed a high cholesterol diet (HC) by peroral administration at 100 mg/kg dose.
The subject of assay [8] is Rattus norvegicus. Nature of the assay: Hypolipidemic effects in rat plasma Triglyceride (TG) by peroral administration at 100 mg/kg dose.
Assay [9] has as its system Rattus norvegicus. Nature of the assay: Hypolipidemic effect in rat plasma Total cholesterol (TC) by peroral administration at 100 mg/kg dose.
For assay [10], the system named is Rattus norvegicus. Nature of the assay: Hypolipidemic effects in rat plasma high density lipoprotein cholesterol (HDLC) by peroral administration at 100 mg/kg dose.
Assay [11] relates to Rattus norvegicus. Nature of the assay: Hypolipidemic effects in rat fed a high cholesterol diet (HC) by peroral administration at 100 mg/kg dose. (increase in liver weight with respect to body weight mg/g).
Assay [12] relates to Rattus norvegicus. Put plainly: Hypolipidemic effects in rat fed a normal diet by peroral administration at 100 mg/kg dose.
The test system of assay [13] is Rattus norvegicus. Put plainly: Hypolipidemic effects in rat fed a normal diet by peroral administration at 100 mg/kg dose.(increase in liver weight with respect to body weight mg/g).
The subject of assay [14] is Rattus norvegicus. Nature of the assay: Hypolipidemic effects of compound on rat plasma Triglyceride (TG) level after by peroral administration at 100 mg/kg dose.
The subject of assay [15] is Rattus norvegicus. Nature of the assay: Hypolipidemic effects in rat fed a high cholesterol diet (HC) by peroral administration at 100 mg/kg dose (increase in liver weight with respect to body weight mg/g).

Some results are limits rather than exact numbers.

`CC(C)(CCCOc1ccc(CCNC(=O)c2ccccc2)cc1)C(=O)O` had an HDL-C in assay [1] of 42.1 mg/dL. The Liver weight in assay [2] is recorded as 57 mg (g of body weight)-1. The compound further showed a TC in assay [3] of 204.1 mg/dL. This compound returned a TG in [4] of 49.4 mg/dL.
Take `Cc1ccc(C)c(CCCCc2ccc(OCCCCC(C)(C)C(=O)O)cc2)c1`: the HDL-C in [1] stood at 56 mg/dL. Also, the Liver weight in assay [5] was 40 mg (g of body weight)-1; in assay [6], 59.9 mg (g of body weight)-1. Further, the TC in assay [3] turned out to be 125.9 mg/dL. In assay [4], this compound yielded a TG of 34.4 mg/dL.
Consider `Cc1cnc(C(=O)OCC(C)(C)CCCCOc2ccc(CCCCc3ccccc3)cc2)c[n+]1[O-]`, for which the Liver weight in [7] is on record as 57.8 mg (g of body weight)-1. Also, the TG in [8] was determined as 45.8 mg/dL. For the same compound, the TC in [9] is below 146.6 mg/dL. Moreover, the HDL-C in assay [10] amounted to 45.3 mg/dL.
As to `CC(C)(CCCOc1ccc(Cc2ccccc2)cc1)C(=O)O`, the HDL-C in [1] was 29.9 mg/dL. Also, the Liver weight in assay [11] is given as 53.2 mg (g of body weight)-1. In assay [3], this compound came in with a TC of 284.4 mg/dL. In assay [4], this compound yielded a TG of 84.7 mg/dL.
`CC(C)(CCCCCCCCCOc1ccc(CCCCc2ccccc2)cc1)C(=O)O`: the Liver weight in assay [7] is recorded as 57.5 mg (g of body weight)-1; in assay [12] it was <38.2 mg (g of body weight)-1. This compound also registered a TG in assay [8] of 57.3 mg/dL. The TC in assay [9] is below 173.6 mg/dL. Further, the HDL-C in [10] was below 55 mg/dL.
Consider `CC(C)(CCCOc1ccc(CCCc2ccccc2)cc1)C(=O)O`, for which the values for the Liver weight in [13] and in assay [6] were 39.1 mg (g of body weight)-1 and 54 mg (g of body weight)-1, respectively. In [1], the HDL-C was 40.6 mg/dL. This compound came in with a TG in [14] of 79.5 mg/dL. For the same compound, the TC in assay [3] amounted to 217.5 mg/dL.
In the same order, the values of `CC(C)(CCCOc1ccc(CCCCCc2ccccc2)cc1)C(=O)O` are 40 mg (g of body weight)-1, 54.1 mg (g of body weight)-1, 38.1 mg/dL, 71.9 mg/dL and 261.9 mg/dL.
In [1], `Cc1ccc(CCCCc2ccc(OCCCCC(C)(C)C(=O)O)cc2)c(C)c1` registered an HDL-C of 73 mg/dL. For the same compound, the Liver weight is on record as 62.3 mg (g of body weight)-1 in assay [2] and 41.8 mg (g of body weight)-1 in [5]. In [3], this compound gave a TC of 173.9 mg/dL. In addition, the TG in assay [4] is 37 mg/dL.
Regarding `CC(C)(CCCCOc1ccc(CCCCc2ccccc2)cc1)C(=O)OCc1cccnc1`, the HDL-C in [1] was 59.6 mg/dL. Moreover, the Liver weight in assay [5] is recorded as 38 mg (g of body weight)-1; in [6] it was 58.2 mg (g of body weight)-1. In addition, the TC in [3] worked out at 154.3 mg/dL. The TG in assay [4] was determined as 43.9 mg/dL.
`CC(C)(CCCOc1ccc(CCCCCCc2ccccc2)cc1)C(=O)O` displayed an HDL-C in assay [1] of 38.4 mg/dL. Also, the TG in [14] was determined as 86.2 mg/dL. Further, in assay [2], the Liver weight is on record as 52.1 mg (g of body weight)-1. The compound also showed a TC in assay [3] of 256.1 mg/dL.
In the case of `CC(C)(CCCOc1ccc(C(=O)c2ccccc2)cc1)C(=O)O`, the HDL-C in [1] is 57.6 mg/dL. Moreover, the Liver weight in assay [2] is given as 81.8 mg (g of body weight)-1. For the same compound, in assay [3], the TC was 260.8 mg/dL. Also, the TG in [4] is 53.6 mg/dL.
In turn, `CC(C)(CCCOc1ccc(CCCCc2ccccc2)cc1)C(=O)O` registered an HDL-C in assay [1] of 35.2 mg/dL. Besides, the TC in assay [3] was 258.3 mg/dL. For the same compound, the Liver weight in assay [6] is reported as 54.5 mg (g of body weight)-1. In assay [4], this compound had a TG of 76.9 mg/dL.
As to `CC(C)(Oc1ccc(CCCCc2ccccc2)cc1)C(=O)O`, the HDL-C in assay [1] was determined as 50.7 mg/dL. Further, the Liver weight in assay [2] is given as 67.1 mg (g of body weight)-1; in [5], 54.6 mg (g of body weight)-1. Besides, the TC in [3] was 194.6 mg/dL. The compound also gave a TG in [4] of 41.3 mg/dL.
As for `CC(C)(CCCCOc1ccc(CCCCc2ccccc2)cc1)COC(=O)c1cccnc1`, the HDL-C in assay [1] was found to be 49.9 mg/dL. Further, the Liver weight in assay [5] was 39.7 mg (g of body weight)-1; in [6], 57.8 mg (g of body weight)-1. In addition, the TC in assay [3] turned out to be 152 mg/dL. The compound also yielded a TG in assay [4] of 46.7 mg/dL.
As to `Cc1cnc(COC(=O)C(C)(C)CCCCOc2ccc(CCCCc3ccccc3)cc2)cn1`, in [1], the HDL-C came out at 51.7 mg/dL. Further, the TG in [14] came out at 36.9 mg/dL. Also, the Liver weight in assay [5] is reported as 38.2 mg (g of body weight)-1; in assay [6], 59.6 mg (g of body weight)-1. The TC in [3] was found to be 181.5 mg/dL.
As for `CC(C)(CCCOc1ccc(-c2ccccc2)cc1)C(=O)O`, the HDL-C in assay [1] was 39.9 mg/dL. In addition, the Liver weight in assay [11] is given as 54.7 mg (g of body weight)-1. Moreover, the TC in assay [3] is 222.7 mg/dL. Moreover, the TG in assay [4] came to 54.3 mg/dL.
For the compound `CC(C)(CCCCCCCOc1ccc(CCCCc2ccccc2)cc1)C(=O)O`, the Liver weight in [7] is on record as 57.6 mg (g of body weight)-1; in assay [12], <40.1 mg (g of body weight)-1. This compound showed a TG in assay [8] of 43 mg/dL. The compound further registered a TC in assay [9] below 145.7 mg/dL. Further, in assay [10], the HDL-C was below 65.2 mg/dL.
On to `CC(C)(CCCOc1ccc(CCc2ccccc2)cc1)C(=O)O`, for which, in [1], the HDL-C is 32 mg/dL. Besides, the TC in [3] was determined as 282.8 mg/dL. In [6], the Liver weight is 53.5 mg (g of body weight)-1. The TG in [4] was 92.7 mg/dL.
In the case of `CC(C)(CCCCCOc1ccc(CCCCc2ccccc2)cc1)C(=O)O`, the results for the Liver weight in assay [13] and in assay [6] were 36.7 mg (g of body weight)-1 and 58.3 mg (g of body weight)-1, respectively. In assay [1], this compound gave an HDL-C of 52.4 mg/dL. Besides, the TC in assay [3] was determined as 190.6 mg/dL. In assay [4], this compound registered a TG of 60.4 mg/dL.
For `CC(C)(CCCCCCCCCCOc1ccc(CCCCc2ccccc2)cc1)C(=O)O`, the Liver weight in assay [7] is given as 57.2 mg (g of body weight)-1. This compound showed a TG in assay [8] of 52.8 mg/dL. The compound also returned a TC in [9] of 248.6 mg/dL. The HDL-C in assay [10] amounted to 48.6 mg/dL.
`Cc1cnc(C(=O)OCC(C)(C)CCCCOc2ccc(CCCCc3ccccc3)cc2)cn1` displayed an HDL-C in assay [1] of 47.6 mg/dL. Besides, in assay [3], the TC is 145.1 mg/dL. The Liver weight in assay [6] was 58 mg (g of body weight)-1. The compound also yielded a TG in [4] of 41 mg/dL.
As for `CC(C)(CCCCCCCCOc1ccc(CCCCc2ccccc2)cc1)C(=O)O`, the Liver weight in [7] was 58.4 mg (g of body weight)-1; in assay [12] it was <39.3 mg (g of body weight)-1. Also, the TG in assay [8] came out at 47.6 mg/dL. The compound further gave a TC in assay [9] below 150 mg/dL. The compound also showed an HDL-C in assay [10] below 53.7 mg/dL.
On to `CC(C)(CCCCCCOc1ccc(CCCCc2ccccc2)cc1)C(=O)O`, for which the HDL-C in assay [1] was 58.1 mg/dL. For the same compound, the figures for the Liver weight in assay [5] and in [6] were 42.3 mg (g of body weight)-1 and 60.2 mg (g of body weight)-1, respectively. In addition, the TC in [3] came out at 150.7 mg/dL. The TG in assay [4] was determined as 48.9 mg/dL.
For the compound `CCOC(=O)C(C)(C)Oc1ccc(Cl)cc1` [CLOFIBRATE], the values for the Liver weight in assay [7] and in [12] were 52.8 mg (g of body weight)-1 and <43.1 mg (g of body weight)-1, respectively. Besides, the TG in assay [8] is below 51.8 mg/dL. The compound also had a TC in assay [9] below 251.2 mg/dL. For the same compound, the HDL-C in assay [10] came out at 29.4 mg/dL.
As for `Cc1ccc(C)c(OCCCC(C)(C)C(=O)O)c1` [GEMFIBROZIL], the Liver weight in [13] is given as 51.4 mg (g of body weight)-1; in [15], 54.8 mg (g of body weight)-1. For the same compound, the HDL-C in [1] is 51.5 mg/dL. Further, the TC in assay [3] came to 358.7 mg/dL. Moreover, the TG in [4] amounted to 53.1 mg/dL.
